Reference: paper PMC5248971 (Science signaling, 2016)

Target: T1, OpuCA (Staphylococcus aureus, UniProt A0A0H2XHM3)
T1 sequence (A0A0H2XHM3 1-408): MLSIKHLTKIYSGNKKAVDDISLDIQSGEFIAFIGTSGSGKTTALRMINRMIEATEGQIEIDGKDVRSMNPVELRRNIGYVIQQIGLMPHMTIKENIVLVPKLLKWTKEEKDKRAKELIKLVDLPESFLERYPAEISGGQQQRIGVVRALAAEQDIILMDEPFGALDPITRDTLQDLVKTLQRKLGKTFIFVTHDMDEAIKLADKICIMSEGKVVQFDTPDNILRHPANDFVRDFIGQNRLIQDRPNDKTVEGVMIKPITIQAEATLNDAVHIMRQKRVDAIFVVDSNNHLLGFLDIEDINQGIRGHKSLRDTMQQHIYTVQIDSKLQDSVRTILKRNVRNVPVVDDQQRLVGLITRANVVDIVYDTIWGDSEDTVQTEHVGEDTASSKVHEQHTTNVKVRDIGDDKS
Format: binding

In the case of Nc1ncnc2c1ncn2[C@@H]1O[C@@H]2COP(=O)(O)O[C@H]3[C@@H](O)[C@H](n4cnc5c(N)ncnc54)O[C@@H]3COP(=O)(O)O[C@H]2[C@H]1O [c-di-AMP], the Kd is reported as 2460 ± 140 nM.
